{"source": "patent US6117975A", "about": "“Melanocortin receptor polypeptides MC-3, MC-4, and MC-5” (The Regents of the University of Michigan, priority 1996, dated 2000)", "key": {"[1]": {"tested_on": "chimeric receptor cH2R/MC3R-3i", "details": "chimeric cH2R/MC3R-3i, Hepa cells", "source_text": "(§1) Chimeric Receptor. […] The chimeric receptor (cH2R/MC3R-3i) was constructed by cassette mutation at the junction of the fifth and sixth transmembrane domains of cH2R. Six PCR primers were used to generate three DNA fragments which were subsequently ligated together. The three PCR-generated fragments consisted of 1) the 5' coding region of the cH2R receptor beginning just prior to the ATG codon and ending with the 3' end of the fifth transmembrane domain; 2) the portion of the MC3 receptor gene encoding its third intracytoplasmic loop; and 3) the 3' coding region of the cH2R beginning with that segment encoding the 5' end of the sixth transmembrane domain and ending slightly past the termination codon. The DNA fragments were cut with appropriate restriction enzymes at pre-engineered restriction sites designed so that the three fragments could be assembled together in only the correct alignment. Restriction sites were also designed to facilitate subcloning the chimeric receptor DNA into CMVneo and the sequencing vector M13. The nucleotide sequence of the CMVneo cH2R/MC3R-3i construct was confirmed prior to expression in Hepa cells.\n(§2) cAMP Assays. A cAMP assay kit purchased from Amersham (TRK 432, Arlington Heights, Ill.) was employed. Transfected cells were grown to confluence in 12-well (2.4×1.7 cm) tissue culture plates. […]"}, "[2]": {"molecular_target": "T1, wild-type H2-histamine receptor (cH2R) (Canis lupus familiaris, UniProt P17124)", "T1 sequence (P17124 whole entry)": "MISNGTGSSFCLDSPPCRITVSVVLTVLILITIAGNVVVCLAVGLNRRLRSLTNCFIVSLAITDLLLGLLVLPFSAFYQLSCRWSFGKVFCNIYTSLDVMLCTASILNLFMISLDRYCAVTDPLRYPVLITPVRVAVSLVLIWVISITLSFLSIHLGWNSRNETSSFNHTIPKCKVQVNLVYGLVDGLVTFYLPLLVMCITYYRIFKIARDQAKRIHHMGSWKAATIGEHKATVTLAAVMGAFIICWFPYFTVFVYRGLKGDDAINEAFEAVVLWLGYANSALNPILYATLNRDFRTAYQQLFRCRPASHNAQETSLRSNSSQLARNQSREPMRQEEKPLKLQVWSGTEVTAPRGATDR", "details": "Hepa cells", "source_text": "as §1, §2"}, "[3]": {"molecular_target": "T1, wild-type H2-histamine receptor (cH2R)", "details": "Hepa cells", "source_text": "as §1\n(§3) Inositol Phosphate (IP) Assays.", "remark": "listed apart in the source"}, "[4]": {"tested_on": "chimeric receptor cH2R/MC3R-3i", "experiment": "[3H] IP production in Hepa cells transfected with chimeric cH2R/hMC3R-3i", "format": "cell-based", "details": "chimeric cH2R/MC3R-3i, Hepa cells", "source_text": "as §1, §3"}}}
{"molecule": "NCCc1c[nH]cn1", "note": "[histamine]", "values": [{"measurement": "cAMP dose-response (in words)", "setting": "[1]", "value": "monophasic cAMP dose-response curve"}, {"measurement": "cAMP dose-response (in words)", "setting": "[2]", "value": "monophasic dose-dependent increases in both cAMP and [^3 H]-IP production"}, {"measurement": "[3H]-IP production dose-response (in words)", "setting": "[3]", "value": "monophasic dose-dependent increases in both cAMP and [^3 H]-IP production"}, {"measurement": "[3H]-IP production dose-response (in words)", "setting": "[4]", "value": "biphasic dose-response curve for [^3 H]-IP production"}]}
